Legend:
SMARCA2-HiBiT = molecular target: T1, SMARCA2-HiBiT (Homo sapiens, UniProt P51531); experiment: SMARCA2 HiBiT degradation assay in HeLa cells; type: cell-based; conditions: 18 hours incubation; for DC50: read-out: HeLa_HiBit-SM2 DC50; for Dmax: HeLa, read-out: HeLa-HiBit-SM2 Dmax (%)
T1 construct: SMARCA2-HiBiT knock-in Hela monoclonal cell (CS302366); host or cells: HeLa monoclonal knock-in line (CRISPR HiBiT knock-in at the endogenous locus, heterozygous)
Outline: (§1)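 HeLa monoclonal lines with heterozygous HiBiT knock-in were seeded at 2500 cells/well in EMEM with 10% FBS and treated with compound for 18 h at 37 °C. Remaining tagged protein was measured by Nano-Glo HiBiT lytic luminescence after 30–60 min at RT, and values came from curve fitting.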

SMARCA4-HiBiT = molecular target: T2, SMARCA4-HiBiT (Homo sapiens, UniProt P51532); experiment: SMARCA4 HiBiT degradation assay in HeLa cells; type: cell-based; conditions: 18 hours incubation; for DC50: read-out: HeLa-HiBit-SM4 DC50; for Dmax: HeLa, read-out: HeLa-HiBit-SM4 Dmax (%)
T2 construct: SMARCA4-HiBiT knock-in Hela monoclonal cell (CS3023226); host or cells: HeLa monoclonal knock-in line (CRISPR HiBiT knock-in at the endogenous locus, heterozygous)
Outline: as §1

T1 sequence (P51531 whole entry): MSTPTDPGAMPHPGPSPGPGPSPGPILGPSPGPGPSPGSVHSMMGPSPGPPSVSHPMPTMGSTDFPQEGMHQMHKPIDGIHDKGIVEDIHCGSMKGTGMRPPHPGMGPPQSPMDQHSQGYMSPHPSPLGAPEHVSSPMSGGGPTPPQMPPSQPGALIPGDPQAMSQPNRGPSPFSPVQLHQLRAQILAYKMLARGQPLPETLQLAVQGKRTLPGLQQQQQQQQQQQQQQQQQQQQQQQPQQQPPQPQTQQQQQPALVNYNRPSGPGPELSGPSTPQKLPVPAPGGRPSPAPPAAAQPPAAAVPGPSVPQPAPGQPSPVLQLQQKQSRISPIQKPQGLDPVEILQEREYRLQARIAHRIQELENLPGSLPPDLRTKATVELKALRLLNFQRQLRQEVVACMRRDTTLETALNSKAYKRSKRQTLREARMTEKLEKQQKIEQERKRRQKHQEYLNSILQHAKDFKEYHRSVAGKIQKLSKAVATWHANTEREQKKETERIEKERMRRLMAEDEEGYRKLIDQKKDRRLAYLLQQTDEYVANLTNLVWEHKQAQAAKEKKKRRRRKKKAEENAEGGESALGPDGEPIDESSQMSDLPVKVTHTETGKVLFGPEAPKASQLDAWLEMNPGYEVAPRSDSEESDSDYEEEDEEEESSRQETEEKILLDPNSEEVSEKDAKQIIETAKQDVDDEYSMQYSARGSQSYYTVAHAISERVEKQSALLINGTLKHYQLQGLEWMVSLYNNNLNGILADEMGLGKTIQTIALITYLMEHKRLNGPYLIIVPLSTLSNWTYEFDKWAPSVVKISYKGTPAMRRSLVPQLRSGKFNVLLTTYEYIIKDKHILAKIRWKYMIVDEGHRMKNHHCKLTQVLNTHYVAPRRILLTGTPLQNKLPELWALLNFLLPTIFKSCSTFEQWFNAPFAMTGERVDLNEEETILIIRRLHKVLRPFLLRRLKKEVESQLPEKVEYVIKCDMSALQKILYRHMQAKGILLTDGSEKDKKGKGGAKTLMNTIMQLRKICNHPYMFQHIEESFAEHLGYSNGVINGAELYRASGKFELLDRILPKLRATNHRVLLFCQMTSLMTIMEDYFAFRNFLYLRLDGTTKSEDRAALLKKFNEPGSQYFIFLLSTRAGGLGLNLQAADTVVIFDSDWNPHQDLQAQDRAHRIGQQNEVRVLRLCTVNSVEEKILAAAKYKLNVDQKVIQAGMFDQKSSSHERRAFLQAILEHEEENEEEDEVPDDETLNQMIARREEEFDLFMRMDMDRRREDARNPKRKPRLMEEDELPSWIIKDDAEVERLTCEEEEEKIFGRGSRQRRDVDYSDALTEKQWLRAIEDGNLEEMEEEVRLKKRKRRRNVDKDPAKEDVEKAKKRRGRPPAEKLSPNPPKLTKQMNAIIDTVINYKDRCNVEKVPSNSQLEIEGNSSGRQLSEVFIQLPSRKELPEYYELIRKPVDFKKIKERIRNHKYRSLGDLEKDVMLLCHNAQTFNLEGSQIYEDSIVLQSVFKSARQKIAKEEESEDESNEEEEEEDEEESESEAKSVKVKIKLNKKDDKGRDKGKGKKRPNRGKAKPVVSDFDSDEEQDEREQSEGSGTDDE
T2 sequence (P51532 whole entry): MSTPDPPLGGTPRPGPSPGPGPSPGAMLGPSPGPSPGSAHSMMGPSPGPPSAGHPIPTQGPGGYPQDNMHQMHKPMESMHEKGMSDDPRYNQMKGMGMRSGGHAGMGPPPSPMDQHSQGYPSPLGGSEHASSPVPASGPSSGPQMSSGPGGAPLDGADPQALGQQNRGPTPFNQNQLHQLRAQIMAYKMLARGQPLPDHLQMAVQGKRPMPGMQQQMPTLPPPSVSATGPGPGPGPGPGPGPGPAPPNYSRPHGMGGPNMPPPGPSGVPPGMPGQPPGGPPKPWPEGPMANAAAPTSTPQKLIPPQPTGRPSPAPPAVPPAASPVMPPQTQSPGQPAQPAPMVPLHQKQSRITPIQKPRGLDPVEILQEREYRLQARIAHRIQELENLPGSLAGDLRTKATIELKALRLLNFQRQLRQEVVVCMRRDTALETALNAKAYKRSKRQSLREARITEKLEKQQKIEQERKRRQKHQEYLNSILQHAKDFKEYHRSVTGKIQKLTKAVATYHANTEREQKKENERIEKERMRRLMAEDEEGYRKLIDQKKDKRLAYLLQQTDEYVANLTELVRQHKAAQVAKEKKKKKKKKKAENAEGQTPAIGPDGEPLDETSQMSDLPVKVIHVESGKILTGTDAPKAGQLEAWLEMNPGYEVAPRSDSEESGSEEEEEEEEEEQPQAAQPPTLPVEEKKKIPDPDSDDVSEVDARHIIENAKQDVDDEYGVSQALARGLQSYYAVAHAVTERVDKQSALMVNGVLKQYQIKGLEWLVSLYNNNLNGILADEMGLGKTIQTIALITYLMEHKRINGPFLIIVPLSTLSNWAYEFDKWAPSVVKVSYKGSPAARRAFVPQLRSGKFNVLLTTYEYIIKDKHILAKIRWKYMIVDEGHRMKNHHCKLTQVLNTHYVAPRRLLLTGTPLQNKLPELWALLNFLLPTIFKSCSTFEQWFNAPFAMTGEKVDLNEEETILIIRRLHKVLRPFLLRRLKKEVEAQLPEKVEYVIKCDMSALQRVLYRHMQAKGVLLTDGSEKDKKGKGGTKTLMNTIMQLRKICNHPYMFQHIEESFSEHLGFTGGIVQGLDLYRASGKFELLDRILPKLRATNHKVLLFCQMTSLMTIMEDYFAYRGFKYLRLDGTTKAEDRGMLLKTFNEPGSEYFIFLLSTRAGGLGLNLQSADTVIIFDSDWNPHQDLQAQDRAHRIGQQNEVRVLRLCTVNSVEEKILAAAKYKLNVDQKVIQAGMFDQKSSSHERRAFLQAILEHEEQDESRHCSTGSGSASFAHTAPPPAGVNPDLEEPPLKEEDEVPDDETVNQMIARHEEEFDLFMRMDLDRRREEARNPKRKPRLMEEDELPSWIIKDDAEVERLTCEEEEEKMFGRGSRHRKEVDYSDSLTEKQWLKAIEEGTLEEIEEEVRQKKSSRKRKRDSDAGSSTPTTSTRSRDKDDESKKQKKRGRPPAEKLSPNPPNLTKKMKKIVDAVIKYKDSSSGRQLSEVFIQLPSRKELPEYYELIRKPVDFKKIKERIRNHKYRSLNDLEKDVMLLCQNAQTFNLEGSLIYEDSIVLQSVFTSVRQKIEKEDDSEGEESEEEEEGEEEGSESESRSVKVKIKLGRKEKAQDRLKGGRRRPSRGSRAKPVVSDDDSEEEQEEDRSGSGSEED

Structure (SMILES) | DC50 (SMARCA2-HiBiT) [nM] | Dmax (SMARCA2-HiBiT) [%] | DC50 (SMARCA4-HiBiT) [nM] | Dmax (SMARCA4-HiBiT) [%] | HeLa-HiBit-SM4 Dmax (%) (SMARCA4-HiBiT)
CC1CN(c2ccc3c(c2)C(=O)N(C2CCC(=O)NC2=O)C3=O)CCC1CN1CCC(CN2CCN3c4cc(-c5ccccc5O)nnc4NC[C@H]3C2)CC1 (stereo partly drawn) [Example 170, 2-(2,6-dioxopiperidin-3-yl)-5-[4-[[4-[[(10S)-4-(2-hydroxyphenyl)-1,5,6,8,12-pentazatricyclo[8.4.0.02,7]tetradeca-2(7),3,5-trien-12-yl]methyl]piperidin-1-yl]methyl]-3-methylpiperidin-1-yl]isoindole-1,3-dione] | < 10 | > 85 | < 10 | > 85 | –
O=C1CCC(N2C(=O)c3ccc(N4CCC(CN5CCC(CN6CCN7c8cc(-c9ccccc9O)nnc8NC[C@H]7C6)CC5CO)CC4)cc3C2=O)C(=O)N1 (stereo partly drawn) [Example 236, 2-(2,6-dioxopiperidin-3-yl)-5-(4-((2-(hydroxymethyl)-4-(((S)-2-(2-hydroxyphenyl)-5,6,6a,7,9,10-hexahydro-8H-pyrazino[1′,2′:4,5]pyrazino[2,3-c]pyridazin-8-yl)methyl)piperidin-1-yl)methyl)piperidin-1-yl) isoindoline-1,3-dione] | < 10 | > 85 | < 10 | 75 to 85 | –
C[C@H]1CN2c3cc(-c4ccccc4O)nnc3NC[C@H]2CN1C[C@H]1[C@@H]2CN(CC3CCN(c4ccc5c(c4)CN(C4CCC(=O)NC4=O)C5=O)CC3)C[C@@H]21 (stereo partly drawn) [Example 57, 3-(5-(4-(((1R,5S,6r)-6-(((6aS,9S)-2-(2-hydroxyphenyl)-9-methyl-5,6,6a,7,9,10-hexahydro-8H-pyrazino[1′,2′:4,5]pyrazino[2,3-c]pyridazin-8-yl)methyl)-3-azabicyclo[3.1.0]hexan-3-yl)methyl)piperidin-1-yl)-1-oxoisoindolin-2-yl)piperidine-2,6-dione] | < 10 | 50 to 75 | < 10 | ≤ 50 | –
O=C1CCC(N2C(=O)c3ccc(N4CCC(F)(CN5C[C@@H]6[C@@H](CN7CCN8c9cc(-c%10ccccc%10O)nnc9NC[C@H]8C7)[C@@H]6C5)CC4)cc3C2=O)C(=O)N1 (stereo partly drawn) [Example 149, 2-(2,6-dioxopiperidin-3-yl)-5-(4-fluoro-4-(((1R,5S,6s)-6-(((S)-2-(2-hydroxyphenyl)-5,6,6a,7,9,10-hexahydro-8H-pyrazino[1′,2′:4,5]pyrazino[2,3-c]pyridazin-8-yl)methyl)-3-azabicyclo[3.1.0]hexan-3-yl)methyl)piperidin-1-yl)isoindoline-1,3-dione] | < 10 | 50 to 75 | 10 to 100 | 50 to 75 | –
O=C1CCC(N2C(=O)c3ccc(N4CC[C@H](CN5C[C@@H]6[C@H](C5)[C@H]6CN5CCN6c7cc(-c8ccccc8O)nnc7NC[C@H]6C5)[C@@H](F)C4)cc3C2=O)C(=O)N1 (stereo partly drawn) [Example 193, 2-(2,6-dioxopiperidin-3-yl)-5-[(3R,4R)-3-fluoro-4-[[(1S,5R)-6-[[(10S)-4-(2-hydroxyphenyl)-1,5,6,8,12-pentazatricyclo[8.4.0.02,7]tetradeca-2(7),3,5-trien-12-yl]methyl]-3-azabicyclo [3.1.0]hexan-3-yl]methyl]piperidin-1-yl]isoindole-1,3-dione] | < 10 | 75 to 85 | 10 to 100 | – | C (C=50%<Dmax<=75%)
O=C1CCC(N2C(=O)c3ccc(N4CC[C@H](CN5CCC(C(=O)N6CCN7c8cc(-c9ccccc9O)nnc8NC[C@H]7C6)CC5)[C@@H](F)C4)cc3C2=O)C(=O)N1 (stereo partly drawn) [Example 202, 2-(2,6-dioxopiperidin-3-yl)-5-[(3R,4R)-3-fluoro-4-[[4-[(10S)-4-(2-hydroxyphenyl)-1,5,6,8,12-pentazatricyclo [8.4.0.02,7]tetradeca-2(7),3,5-trien-12-carbonyl]piperidin-1-yl]methyl]piperidin-1-yl]isoindole-1,3-dione] | < 10 | > 85 | 10 to 100 | 75 to 85 | –
O=C1CCC(N2C(=O)c3ccc(N4CCC(N[C@H]5C[C@H](CN6CCN7c8cc(-c9ccccc9O)nnc8NC[C@H]7C6)C5)CC4)cc3C2=O)C(=O)N1 (stereo partly drawn) [Example 77, 2-(2,6-dioxopiperidin-3-yl)-5-(4-(((1S,3r)-3-(((S)-2-(2-hydroxyphenyl)-5,6,6a,7,9,10-hexahydro-8H-pyrazino[1′,2′:4,5]pyrazino[2,3-c]pyridazin-8-yl)methyl)cyclobutyl)amino)piperidin-1-yl)isoindoline-1,3-dione] | < 10 | > 85 | < 10 | > 85 | –
O=C1CCC(N2Cc3cc(N4CCO[C@@H](CN5C[C@@H]6[C@H](C5)[C@H]6CN5CCN6c7cc(-c8ccccc8O)nnc7NC[C@H]6C5)C4)ccc3C2=O)C(=O)N1 (stereo partly drawn) [Example 267, 3-(5-((S)-2-(((1R,5S,6R)-6-(((S)-2-(2-hydroxyphenyl)-5,6,6a,7,9,10-hexahydro-8H-pyrazino[1′,2′:4,5]pyrazino[2,3-c]pyridazin-8-yl)methyl)-3-azabicyclo[3.1.0]hexan-3-yl)methyl)morpholino)-1-oxoisoindolin-2-yl)piperidine-2,6-dione] | < 10 | > 85 | < 10 | 75 to 85 | –
O=C1CCC(N2Cc3ccc(N4CCN(CC5CCN(C(=O)N6CCN7c8cc(-c9ccccc9O)nnc8NC[C@H]7C6)CC5)CC4)cc3C2=O)C(=O)N1 (stereo partly drawn) [Example 146, 3-(6-(4-((1-((S)-2-(2-hydroxyphenyl)-6,6a,7,8,9,10-hexahydro-5H-pyrazino[1′,2′:4,5]pyrazino[2,3-c]pyridazine-8-carbonyl)piperidin-4-yl)methyl)piperazin-1-yl)-1-oxoisoindolin-2-yl) piperidine-2,6-dione] | < 10 | > 85 | < 10 | > 85 | –

More lines, now with the values ahead:

DC50 (SMARCA2-HiBiT) [nM] | Dmax (SMARCA2-HiBiT) [%] | DC50 (SMARCA4-HiBiT) [nM] | Dmax (SMARCA4-HiBiT) [%] | HeLa-HiBit-SM4 Dmax (%) (SMARCA4-HiBiT) | Structure (SMILES)
< 10 | > 85 | < 10 | 75 to 85 | – | C[C@H]1CN(CC2CCN(c3ccc4c(c3)C(=O)N(C3CCC(=O)NC3=O)C4)CC2)CCN1C(=O)N1CCN2c3cc(-c4ccccc4O)nnc3NC[C@H]2C1 (stereo partly drawn) [Example 112, 3-(6-(4-(((S)-4-((S)-2-(2-hydroxyphenyl)-6,6a,7,8,9,10-hexahydro-5H-pyrazino[1′,2′:4,5]pyrazino[2,3-c]pyridazine-8-carbonyl)-3-methylpiperazin-1-yl)methyl)piperidin-1-yl)-1-oxoisoindolin-2-yl)piperidine-2,6-dione]
< 10 | – | < 10 | – | – | CCC1CN(CC2CCN(c3ccc4c(c3)C(=O)N(C3CCC(=O)NC3=O)C4)CC2)CCN1C(=O)N1CCN2c3cc(-c4ccccc4O)nnc3NC[C@H]2C1 (stereo partly drawn) [Example 271, 3-(6-(4-((3-ethyl-4-((S)-2-(2-hydroxyphenyl)-6,6a,7,8,9,10-hexahydro-5H-pyrazino[1′,2′:4,5]pyrazino[2,3-c]pyridazine-8-carbonyl)piperazin-1-yl)methyl)piperidin-1-yl)-1-oxoisoindolin-2-yl)piperidine-2,6-dione]
< 10 | 75 to 85 | 10 to 100 | ≤ 50 | – | O=C1CCC(N2C(=O)c3ccc(N4CCOC(CN5CCN(C(=O)N6CCN7c8cc(-c9ccccc9O)nnc8NC[C@H]7C6)CC5)C4)cc3C2=O)C(=O)N1 (stereo partly drawn) [Example 117, 2-(2,6-dioxopiperidin-3-yl)-5-(2-((4-((S)-2-(2-hydroxyphenyl)-6,6a,7,8,9,10-hexahydro-5H-pyrazino[1′,2′:4,5]pyrazino[2,3-c]pyridazine-8-carbonyl)piperazin-1-yl)methyl)morpholino)isoindoline-1,3-dione]
< 10 | > 85 | < 10 | > 85 | – | O=C1CCC(N2C(=O)c3ccc(N4CCC(CN5CCC6C(C5)C6CN5CCN6c7cc(-c8ccccc8O)nnc7NC[C@H]6C5)CC4)cc3C2=O)C(=O)N1 (stereo partly drawn) [Example 46, 2-(2,6-dioxopiperidin-3-yl)-5-(4-((7-(((S)-2-(2-hydroxyphenyl)-5,6,6a,7,9,10-hexahydro-8H-pyrazino[1′,2′:4,5]pyrazino[2,3-c]pyridazin-8-yl)methyl)-3-azabicyclo[4.1,0]heptan-3-yl)methyl)piperidin-1-yl)isoindoline-1,3-dione]
< 10 | 75 to 85 | 10 to 100 | 75 to 85 | – | O=C1CCC(N2C(=O)c3ccc(OC4CCN(CC5CCN(C(=O)N6CCN7c8cc(-c9ccccc9O)nnc8NC[C@H]7C6)CC5)CC4)cc3C2=O)C(=O)N1 (stereo partly drawn) [Example 145, 2-(2,6-dioxopiperidin-3-yl)-5-((1-((1-((S)-2-(2-hydroxyphenyl)-6,6a,7,8,9,10-hexahydro-5H-pyrazino[1′,2′:4,5]pyrazino[2,3-c]pyridazine-8-carbonyl)piperidin-4-yl)methyl)piperidin-4-yl)oxy)isoindoline-1,3-dione]
< 10 | 50 to 75 | 10 to 100 | 50 to 75 | – | CN(CCCCN1CCC(CN2CCN3c4cc(-c5ccccc5O)nnc4NC[C@H]3C2)CC1)c1ccc2c(c1)C(=O)N(C1CCC(=O)NC1=O)C2=O (stereo partly drawn) [Example 227, 2-(2,6-dioxopiperidin-3-yl)-5-((4-(4-(((S)-2-(2-hydroxyphenyl)-5,6,6a,7,9,10-hexahydro-8H-pyrazino[1′,2′:4,5]pyrazino[2,3-c]pyridazin-8-yl)methyl)piperidin-1-yl)butyl)(methyl)amino)isoindoline-1,3-dione]
